Earlier results in US10011626B2, “Method for the purification of decitabine” (Johnson Matthey Public Limited Company, priority 2012, dated 2018).

solubility in 1,1,1,3,3,3-hexafluoro-2-propanol (solvent: 1,1,1,3,3,3-hexafluoro-2-propanol, slightly soluble): about 18 mg/mL
solubility in methyl sulfoxide (solvent: methyl sulfoxide): approximately 37 mg/mL
solubility in water (solvent: water, sparingly soluble): about 8 mg/mL
Compound: Nc1ncn([C@H]2CC(O)[C@@H](CO)O2)c(=O)n1 (stereo partly drawn) [decitabine, 4-amino-1-(2-deoxy-β-D-erythropentofuranosyI)-1,3,5-triazin-2-(1H)-one]
